Measured values reported in patent EP1649856A2, “Use of pimecrolimus for selective immunomodulation” (Novartis AG, priority 2001, dated 2002).
“Also recorded” adds a separate entry of the source.

Tests used:
[1] = Clinical study of oral pimecrolimus in psoriasis patients (efficacy and safety)
Description: A clinical study was initiated with an oral formulation of pimecrolimus to treat psoriatic patients. Pimecrolimus was evaluated as treatment for psoriasis using an oral dose of 60 mg (30 mg b.i.d) during a 4-week clinical study. The cohort included 10 patients; 8 received the treatment and 2 received a placebo.
The dose used in the study was 60 mg/day, given as 30 mg b.i.d. To make this dose the 20 mg tablets were cut in half using a special cutter (Tablettenteiler NR.96) so as to obtain 30 mg of pimecrolimus or a matched amount of placebo.

blood cells = settings: 30 mg b.i.d. oral
Description: Pimecrolimus was evaluated as treatment for psoriasis using an oral dose of 60 mg (30 mg b.i.d) during a 4-week clinical study. The cohort included 10 patients; 8 received the treatment and 2 received a placebo. Blood samples were collected before the first administration to establish the gene expression baseline and on days 13 or 14 after treatment with pimecrolimus or placebo and submitted to gene expression analysis in order to gain insights into the mechanisms of action of the compound.
The RNA from blood samples drawn from each patient in the study was extracted and tested on individual DNA microarrays, thus allowing, for each patient, a comparison of gene expression before and after pimecrolimus treatment. […] Genes that were consistently modulated were sorted in functional categories.

[2] = Pharmacokinetics after multiple oral administrations to psoriatic patients for 28 days; format: in vivo, human
Description: Table 4. Summary of Cmax and AUCτ Following Multiple Oral Administrations of Pimecrolimus to Psoriatic Patients for 28 Days
In this study pimecrolimus was rapidly absorbed with a median tmax across all the dose groups and collection days of between 0.8 and 2.0 hours. […] There was no effect of age or weight on the apparent clearance of pimecrolimus.

[3] = test system: systemic immune responses; test: Models of systemic immunosuppression (graft-versus-host reaction, antibody formation to sheep red blood cells, kidney transplantation); format: in vivo, rats; settings: transplantation and vaccination models
From the text: Pimecrolimus (also called ASM981 and ELIDEL®) is an ascomycin macrolactam-derivative with anti-inflammatory properties, chemical name is 33-epichloro-33-desoxy-ascomycin. Pimecrolimus is an ascomycin macrolactam-derivative developed originally for topical and oral treatment of inflammatory skin diseases such as atopic dermatitis and psoriasis. Pimecrolimus binds to macrophilin-12 and inhibits the Ca-dependent phosphatase calcineurin. As a consequence, it inhibits T cell activation and blocks the transcription and release of both Th1 and Th2 inflammatory cytokines. […] Tachyphylaxis has not been observed.

[4] = test system: eosinophil influx into the lungs; test: Aeroallergen induced eosinophil influx into the lungs of sensitized mice; format: in vivo; settings: oral administration
From the text: Direct evidence on the efficacy on pimecrolimus in asthma is provided by studies showing the effect on lung eosinophilia rats. One study looked at the inhibitory effect of pimecrolimus on the aeroallergen induced eosinophil influx into the lungs of sensitized mice.

[5] = test system: SCID mice reconstituted with CD4^+CD45RB^HI T cells; test: SCID-IBD mouse model, treatment from day 1 for 4 weeks; format: in vivo; settings: for loss of original BW: 4 weeks post-T cell transfer (controls lost 15-18%); for colitis, histological inflammation of colon (score 0-8): 29 days
From the text: A well-established animal model for IBD exists (see Leach et al., Am. J. Pathol., Vol. 148, No. 5, pp. 1503-1515 (1996), and Powrie et al., Int. Immunol., Vol. 5, No. 11, pp. 1461-1471 (1993)). It is known that the transfer of syngeneic, naive T lymphocytes (CD4^+CD45RB^HI) into SCID mice results in a severe colitis and wasting disease, SCID-IBD. Histopathologically, features of both CD and UC are represented in this model which has been used throughout the 1990s to bring the understanding of the pathoetiology of this disease of immune dysregulation in man to its present status. There is no other animal model of IBD which is considered relevant for the human disease, both in mechanism and in validity of clinical treatment.
In this study, SCID mice reconstituted with CD4^+CD45RB^HI T lymphocytes were used. These mice are known to develop chronic colitis with characteristics similar to human IBD, as described above.
In this study, SCID mice were reconstituted with 2 x 10^5 CD4^+CD45RB^HI T cells and then treated with pimecrolimus (30, 60 and 100 mg/kg/day) or vehicle daily p.o. for 4 weeks. […] BW was monitored throughout. On termination, blood was withdrawn, spleen, mesenteric lymph nodes (MLN) and colon were removed. Serum haptoglobin levels were measured (ELISA), colitis was assessed histologically and lymphocyte and neutrophil numbers were calculated from FACS analysis of blood, spleen and MLN cell suspensions.
In order to determine the efficacy of ASM981 treatment in preventing intestinal mucosal damage in SCID-IBD mice, a histological examination of the colon sections was performed according to defined morphological parameters. All colon sections were assessed according to a scheme awarding degrees of severity governed by the extent of cell infiltration and inflammation with a score of 8 being the maximum.

[6] = test system: mixed-lymphocyte reaction; test: mixed-lymphocyte reaction (MLR) assay; format: cell-based; settings: Mus musculus
From the text: In addition to the IL-2 reporter gene assay, the concentration of immunosuppressants, such as pimecrolimus and FK506 can be measured by the mixed-lymphocyte reaction (see Meo, The MLR in the Mouse", Immunological Methods, Lefkovits and Pemis, Eds., p. 227 Academic Press, NY).

pulmonary eosinophilia = test: Antigen-induced pulmonary eosinophilia in actively sensitized rats; format: in vivo, Brown Norway Rats; settings: given orally as a microemulsion or dissolved in Neoral placebo
From the text: Another study looked at the effects of oral administration of pimecrolimus on antigen-induced pulmonary eosinophilia in actively sensitized Brown Norway Rats.

[7] = format: in vitro ADME, human
From the text: Pimecrolimus, when applied topically, permeates less through human (and animal) skin than, for example, FK506 and corticosteroids by factors of 9 and 60-120, respectively, indicating a lower potential to enter the systemic circulation and thus to exert systemic side effects. As is well-known, glucocorticoids are non-selective agents and are therefore associated with many systemic actions and a wide variety of side effects, whether applied topically or systemically. This is in contrast to pimecrolimus.

[8] = 20 mg b.i.d. oral, Day 13, Mean ± SD, 18720 min
[9] = 20 mg b.i.d. oral, Day 28, Mean ± SD, 40320 min
[10] = human, blood, 5 mg q.d. oral, Day 1, Mean ± SD
[11] = human, blood, 5 mg q.d. oral, Day 13, Mean ± SD
[12] = human, blood, 5 mg q.d. oral, Day 28, Mean ± SD
[13] = human, blood, 10 mg q.d. oral, Day 1, Mean ± SD
[14] = human, blood, 10 mg q.d. oral, Day 28, Mean ± SD
[15] = human, blood, 20 mg q.d. oral, Day 13, Mean ± SD
[16] = human, blood, 20 mg q.d. oral, Day 28, Mean ± SD
[17] = human, blood, 30 mg b.i.d. oral, Day 1, Mean ± SD
[18] = human, blood, 30 mg b.i.d. oral, Day 13, Mean ± SD
[19] = human, blood, 30 mg b.i.d. oral, Day 28, Mean ± SD
[20] = dose range 30-100 mg/kg/day p.o.

CC[C@@H]1/C=C(\C)C[C@H](C)C[C@H](OC)[C@H]2O[C@@](O)(C(=O)C(=O)N3CCCC[C@H]3C(=O)O[C@H](/C(C)=C/[C@@H]3CC[C@H](Cl)[C@H](OC)C3)[C@H](C)[C@@H](O)CC1=O)[C@H](C)C[C@@H]2OC [pimecrolimus, 33-epichloro-33-desoxy-ascomycin]
clinical effect on psoriasis ([1]; oral 60 mg (30 mg b.i.d), 4-week study, 8 treated patients): reduction of psoriasis | tolerability in man ([1]; oral dosing up to 60 mg (or 30 mg b.i.d.) over 28 days): well-tolerated | toxic effect in the expression profile (blood cells): No obvious toxic effect | expression of genes involved in asthma and IBD (RANTES, GALECTIN-3, Thromboxane A2 receptor, Glutathione peroxidase) (blood cells; days 13 or 14 vs baseline): specifically and significantly down-regulated | expression of inflammatory mediators (Leukotriene A4 hydrolase, prostaglandin endoperoxide synthase) (blood cells; days 13 or 14 vs baseline): strongly down regulate | AUCτ,b ([2]; 20 mg b.i.d. oral, Day 1, Mean ± SD, 1440 min): 139.9 ± 39.2 ng·h/mL | AUCτ,b [2, 8]: 259.6 ± 122.6 ng·h/mL | Cmax,b [2, 8]: 54.7 ± 36.3 ng/mL | AUCτ,b [2, 9]: 229.5 ± 90.9 ng·h/mL | Cmax,b [2, 9]: 41.7 ± 16.5 ng/mL | mean AUC at steady-state over 24 hours ([2]; 30 mg b.i.d., day 28, calculated assuming identical AUCτ for morning and evening doses): ~562 ng·h/mL | AUC at 24 h ([2]; human, blood, po, 30 mg b.i.d., day 13, calculated assuming identical AUCτ for morning and evening doses, read-out: mean AUC at steady-state over 24 hours): ~590 ng·h/mL | Tmax ([2]; human, blood, po, across all the dose groups and collection days, read-out: median tmax): 0.8 to 2 h | concentration at 504 h ([2]; human, blood, po, day 21 of the 30 mg BID dose schedule, read-out: highest median blood trough concentration): 18 ng/mL | half-life ([2]; human, blood, po, recorded after the final dose, read-out: terminal half-life): 50 to 100 h | AUC tau at 24 h [2, 10]: 23.3 ± 13 ng·h/mL | Cmax at 24 h [2, 10]: 8.7 ± 2.3 ng/mL | AUC tau at 312 h [2, 11]: 44.5 ± 18.2 ng·h/mL | Cmax at 312 h [2, 11]: 9.7 ± 2.5 ng/mL | AUC tau at 672 h [2, 12]: 35.5 ± 15.8 ng·h/mL | Cmax at 672 h [2, 12]: 9.9 ± 4.8 ng/mL | AUC tau at 24 h [2, 13]: 80.6 ± 31.4 ng·h/mL | Cmax at 24 h [2, 13]: 25.9 ± 8.5 ng/mL | Cmax at 312 h ([2]; human, blood, 10 mg q.d. oral, Day 13, Mean ± SD): 21.8 ± 7.9 ng/mL | AUC tau at 672 h [2, 14]: 90.9 ± 35.4 ng·h/mL | Cmax at 672 h [2, 14]: 24 ± 9.2 ng/mL | Cmax at 24 h ([2]; human, blood, 20 mg b.i.d. oral, Day 1, Mean ± SD): 41.3 ± 16 ng/mL | AUC tau at 24 h ([2]; human, blood, 20 mg q.d. oral, Day 1, Mean ± SD): 173 ± 56 ng·h/mL | AUC tau at 312 h [2, 15]: 253 ± 40.1 ng·h/mL | Cmax at 312 h [2, 15]: 55.3 ± 21.4 ng/mL | AUC tau at 672 h [2, 16]: 258 ± 65.9 ng·h/mL | Cmax at 672 h [2, 16]: 58.3 ± 25.4 ng/mL | AUC tau at 24 h [2, 17]: 206 ± 64 ng·h/mL | Cmax at 24 h [2, 17]: 49.1 ± 21.6 ng/mL | AUC tau at 312 h [2, 18]: 295 ± 60.1 ng·h/mL | Cmax at 312 h [2, 18]: 54.5 ± 27 ng/mL | AUC tau at 672 h [2, 19]: 281 ± 32.8 ng·h/mL | Cmax at 672 h [2, 19]: 41.1 ± 8.4 ng/mL | AUC(0-t) at 24 h ([2]; human, blood, psoriatic patients, oral, read-out: AUC(0-24) associated with a significant clinical response in the target epithelial tissue): ≥ 400 ng·h/mL | Trough concentrations associated with a significant clinical response in the target epithelial tissue ([2]; human, in vivo, po): ≥ 7 ng/mL | systemic immunosuppressive effect compared to CyA and FK506 [3]: only a low potential to impair systemic immune responses; also recorded: minimal immunosuppressive effects | eosinophil count in the lung and eosinophil peroxidase activity [4]: able to reduce | loss of original BW ([5]; 30 mg/kg/day p.o.): 7.1% | colitis, histological inflammation of colon (score 0-8) ([5]; 30 mg/kg/day p.o.): moderate to severe | block of neutrophil infiltration into the colon (MPO activity) ([5]; 60 mg/kg/day p.o.): 72% | loss of original BW ([5]; 60 mg/kg/day p.o.): 8.8% | colitis, histological inflammation of colon (score 0-8) ([5]; 60 mg/kg/day p.o.): moderate | mice with macroscopically normal feces (diarrhea) ([5]; 100 mg/kg/day p.o.): Approximately half of the mice | neutrophil infiltration into the colon (MPO activity) ([5]; 100 mg/kg/day p.o.): completely blocked | loss of original BW ([5]; 100 mg/kg/day p.o.): 3.2% | colitis, histological inflammation of colon (score 0-8) ([5]; 100 mg/kg/day p.o.): only mildly inflamed colons | reduction of Haptoglobin production (serum) [5, 20]: 68-92% | reduction of blood neutrophilia [5, 20]: 85-96% | reduction of spleen neutrophilia [5, 20]: 74-83% | lymphocyte numbers in MLN ([5]; up to 100 mg/kg/day p.o.): significant reduction | lymphocyte numbers in blood or spleen ([5]; up to 100 mg/kg/day p.o.): did not significantly affect | IC50 [6]: 9 nM | antigen-induced pulmonary eosinophilia (pulmonary eosinophilia): effective | factor by which it permeates less through skin than FK506 [7]: 9 | factor by which it permeates less through skin than corticosteroids [7]: 60-120
